Results: publication PMC5351712 (Future Science OA, 2017)
Like-named read-outs stand apart in the source and are kept apart here.

What was measured:
[1] = Stability of EPL and EPLT in human plasma under different storage conditions; format: physicochemical; conditions: n = 6
Experimental: The bench-top stability was performed for each analyte in plasma was determined by three QC levels in six replicates for 8 h at ambient temperature (24 ± 2°C). […] For determination of freeze–thaw stability of the analytes, the spiked plasma samples were frozen for 24 h at -20°C and thawed unassisted at room temperature. When completely thawed, the samples were refrozen for 12–24 h at -20°C. On repeating the freeze−thaw cycle for 2 days, bioanalysis was done on the third day. For short-term stability, frozen plasma samples (-20°C) were kept at room temperature for 4 h before sample processing. Long-term stability was evaluated after storing the frozen plasma samples at -20°C for the whole duration of the study which was almost 30 days. […]

[2] = cited from earlier work; for Time of maximum plasma concentration: after oral administration of EPL
[3] = parameters: method as in ref 7 = [7]; 7 Yoon KH Kim W Park J Kim HJ Determination of enalapril in human plasma by high performance liquid chromatography-electrospray ionization mass spectrometry Bull. Korean Chem. Soc. 25 878 880 2004; conditions: after oral intake, mean value; cited from earlier work
[4] = parameters: method as in GC–MS method; conditions: single oral 20 mg EPL, 24 healthy adult subjects, mean ± SD; analyte not stated; ref GC–MS method; cited from earlier work
[5] = single oral 20 mg EPL maleate, 12 healthy volunteers; cited from earlier work
[6] = parameters: method as in ref 36 = [36]; 36 Remko M Acidity, lipophilicity, solubility, absorption, and polar surface area of some ACE inhibitors Chem. Pap. 61 133 141 2007; conditions: cited from earlier work
[7] = cited from earlier work
[8] = Autosampler stability 24 h at 24°C, QC 3 ng/ml
[9] = Autosampler stability 24 h at 24°C, QC 200 ng/ml
[10] = Autosampler stability 24 h at 24°C, QC 400 ng/ml
[11] = Bench top stability for 8 h, QC 3 ng/ml
[12] = Bench top stability for 8 h, QC 200 ng/ml
[13] = Bench top stability for 8 h, QC 400 ng/ml
[14] = Freeze and thaw stability at -20°C (3 cycles), QC 3 ng/ml
[15] = Freeze and thaw stability at -20°C (3 cycles), QC 200 ng/ml
[16] = Freeze and thaw stability at -20°C (3 cycles), QC 400 ng/ml
[17] = Long-term stability at -20.0°C for 30 days, QC 3 ng/ml
[18] = Long-term stability at -20.0°C for 30 days, QC 200 ng/ml
[19] = Long-term stability at -20.0°C for 30 days, QC 400 ng/ml

Accuracy after storage [1, 8] [%]	Mean concentration after storage [1, 8] [ng/mL]	Accuracy after storage [1, 9] [%]	Mean concentration after storage [1, 9] [ng/mL]	Accuracy after storage [1, 10] [%]	Mean concentration after storage [1, 10] [ng/mL]	Mean concentration after storage [1, 11] [ng/mL]	Accuracy after storage [1, 12] [%]	Mean concentration after storage [1, 12] [ng/mL]	Accuracy after storage [1, 13] [%]	Mean concentration after storage [1, 13] [ng/mL]	Accuracy after storage [1, 14] [%]	Mean concentration after storage [1, 14] [ng/mL]	Accuracy after storage [1, 15] [%]	Mean concentration after storage [1, 15] [ng/mL]	Accuracy after storage [1, 16] [%]	Mean concentration after storage [1, 16] [ng/mL]	Accuracy after storage [1, 17] [%]	Mean concentration after storage [1, 17] [ng/mL]	Accuracy after storage [1, 18] [%]	Structure (SMILES)	other results
92.6446	2.7500	100.4675	200.9350	92.6098	384.6733	2.7350	100.3303	200.9567	99.2485	412.2483	91.6339	2.7200	94.7244	189.7283	93.5010	388.3750	90.9601	2.7000	98.6628	CCOC(=O)[C@H](CCc1ccccc1)N[C@@H](C)C(=O)N1CCC[C@H]1C(=O)O [EPL, enalapril]	Accuracy after storage [1, 11]: 92.1392%; Mean concentration after storage [1, 18]: 197.6167 ng/mL; Accuracy after storage [1, 19]: 94.6810%; Mean concentration after storage [1, 19]: 393.2767 ng/mL; Plasma level after 4 h ([2]; after 4 h not detected above this level): ≤ 10 ng/mL; Time of maximum plasma concentration [2]: ≤ 1 h; Dose recovered in the urine and feces as EPL or EPLT [2]: approximately 94%; Influence of food on absorption after oral administration [2]: not influenced by the presence of food; Terminal half-life [2]: approximately 2 h; Bioavailability ([2]; healthy subjects, absorbed from the GI tract): 60–70%; Tmax [3]: 0.96 ± 0.36 h; T1/2 [4]: 4.2 ± 1.6 h; Cmax [5]: 152.1 ng/mL; pK a (strongest acidic) [6]: 3.0; polar surface area [6]: 95.9
98.5516	2.6650	93.8950	187.7900	92.5255	365.4017	2.8833	102.2798	190.4450	98.0713	387.3033	87.8274	2.3750	95.3222	177.4900	88.2284	348.4317	92.3267	2.4967	105.6740	C[C@H](N[C@@H](CCc1ccccc1)C(=O)O)C(=O)N1CCC[C@H]1C(=O)O [EPLT, enalaprilat]	Mean concentration after storage [1, 18]: 196.7650 ng/mL; Accuracy after storage [1, 19]: 99.7772%; Mean concentration after storage [1, 19]: 394.0400 ng/mL; Half-life ([2]; EPLT after administration of EPL): 30 to 35 h; Time of maximum plasma concentration [2]: 3 to 4 h; Cmax [5]: 88.5 ng/mL; AUC0–t [7]: 401 ± 89 ng·h/mL; AUC0–∞ [7]: 420 ± 91 ng·h/mL; Cmax [7]: 47.5 ± 12.4 ng/mL; T1/2 [7]: 6.71 ± 2.22 h; Tmax [7]: 4.20 ± 1.06 h
